In patent publication US20250049033A1, “PESTICIDALLY ACTIVE PYRIDAZINONE COMPOUNDS” (SYNGENTA CROP PROTECTION AG, priority 2021, published 2025):

How the values were obtained:
Assay type in all cases: in vivo
[1] = test system: Chilo suppressalis; assay: Activity against Chilo suppressalis (striped rice stemborer), artificial diet, L2 larvae; settings: 144 h, application rate 200 ppm, 6 days after infestation, vs untreated, read-out: control in at least one of the three categories (mortality, anti-feedant effect, or growth inhibition)
Experimental: Example B1: Activity Against Chilo suppressalis (Striped Rice Stemborer)
24-well microtiter plates with artificial diet were treated with aqueous test solutions prepared from 10′000 ppm DMSO stock solutions by pipetting. After drying, the plates were infested with L2 larvae (6-8 per well). The samples were assessed for mortality, anti-feeding effect, and growth inhibition in comparison to untreated samples 6 days after infestation. Control of Chilo suppressalis by a test sample is given when at least one of the categories mortality, anti-feedant effect, and growth inhibition is higher than the untreated sample.

[2] = test system: Diabrotica balteata; assay: Activity against Diabrotica balteata (corn root worm), maize sprouts, L2 larvae; settings: 96 h, application rate 200 ppm, 4 days after infestation, vs untreated, read-out: control in at least one of the two categories (mortality or growth inhibition)
Experimental: Example B2: Activity Against Diabrotica balteata (Corn Root Worm)
Maize sprouts placed onto an agar layer in 24-well microtiter plates were treated with aqueous test solutions prepared from 10′000 ppm DMSO stock solutions by spraying. After drying, the plates were infested with L2 larvae (6 to 10 per well). The samples were assessed for mortality and growth inhibition in comparison to untreated samples 4 days after infestation.

[3] = test system: Spodoptera littoralis; assay: Activity against Spodoptera littoralis (Egyptian cotton leaf worm), cotton leaf discs, L1 larvae; settings: foliar, 72 h, application rate 200 ppm, 3 days after infestation, vs untreated, read-out: control in at least one of the three categories (mortality, anti-feedant effect, or growth inhibition)
Experimental: Example B8: Activity Against Spodoptera littoralis (Egyptian Cotton Leaf Worm)
Cotton leaf discs were placed onto agar in 24-well microtiter plates and sprayed with aqueous test solutions prepared from 10′000 ppm DMSO stock solutions. After drying the leaf discs were infested with five L1 larvae. The samples were assessed for mortality, anti-feeding effect, and growth inhibition in comparison to untreated samples 3 days after infestation. Control of Spodoptera littoralis by a test sample is given when at least one of the categories mortality, anti-feedant effect, and growth inhibition is higher than the untreated sample.

[4] = test system: Euschistus heros; assay: Activity against Euschistus heros (neotropical brown stink bug), soybean leaves, N2 nymphs; settings: 120 h, application rate 200 ppm, 5 days after infestation, vs untreated, read-out: effect in at least one of the two categories (mortality or growth inhibition)
Experimental: Example B3: Activity Against Euschistus heros (Neotropical Brown Stink Bug)
Soybean leaves on agar in 24-well microtiter plates were sprayed with aqueous test solutions prepared from 10′000 ppm DMSO stock solutions. After drying the leaves were infested with N2 nymphs. The samples were assessed for mortality and growth inhibition in comparison to untreated samples 5 days after infestation.

[5] = test system: Plutella xylostella; assay: Activity against Plutella xylostella (diamond back moth), artificial diet, eggs; settings: 192 h, application rate 200 ppm, 8 days after infestation, vs untreated, read-out: control in at least one of the two categories (mortality or growth inhibition)
Experimental: Example B7: Activity Against Plutella xylostella (Diamond Back Moth)
24-well microtiter plates with artificial diet were treated with aqueous test solutions prepared from 10′000 ppm DMSO stock solutions by pipetting. After drying, Plutella eggs were pipetted through a plastic stencil onto a gel blotting paper and the plate was closed with it. The samples were assessed for mortality and growth inhibition in comparison to untreated samples 8 days after infestation. The following compounds gave an effect of at least 80% control in at least one of the two categories (mortality or growth inhibition) at an application rate of 200 ppm: P1, P2, P3, P4, P6, P7, P8, P9, P10, P11, P12, P13, P14, P15, P16, P17, P18, P19, P20, P21, P22, P23, P24, P25, P26, P27.

[6] = test system: Myzus persicae; assay: Activity against Myzus persicae (green peach aphid), feeding/contact activity; settings: foliar, 144 h, application rate 200 ppm, 6 days after infestation, sunflower leaf discs, mixed ages
Experimental: Example B5: Activity Against Myzus persicae (Green Peach Aphid). Feeding/Contact Activity
Sunflower leaf discs were placed onto agar in a 24-well microtiter plate and sprayed with aqueous test solutions prepared from 10′000 ppm DMSO stock solutions. After drying, the leaf discs were infested with an aphid population of mixed ages. The samples were assessed for mortality 6 days after infestation.

[7] = test system: Tetranychus urticae; assay: Activity against Tetranychus urticae (two-spotted spider mite), feeding/contact activity; settings: foliar, 192 h
Experimental: Example B9: Activity Against Tetranychus urticae (Two-Spotted Spider Mite). Feeding/Contact Activity
Bean leaf discs on agar in 24-well microtiter plates were sprayed with aqueous test solutions prepared from 10′000 ppm DMSO stock solutions. After drying the leaf discs were infested with a mite population of mixed ages. The samples were assessed for mortality on mixed population (mobile stages) 8 days after infestation.

[8] = test system: Myzus persicae; assay: Activity against Myzus persicae (green peach aphid), intrinsic activity; settings: 120 h, test rate 12 ppm, 5 days after infestation, sucrose solution through Parafilm
Description: Example B6: Activity Against Myzus persicae (Green Peach Aphid). Intrinsic Activity
Test compounds prepared from 10′000 ppm DMSO stock solutions were applied by pipette into 24-well microtiter plates and mixed with sucrose solution. The plates were closed with a stretched Parafilm. A plastic stencil with 24 holes was placed onto the plate and infested pea seedlings were placed directly on the Parafilm. The infested plate was closed with a gel blotting paper and another plastic stencil and then turned upside down. The samples were assessed for mortality 5 days after infestation.

[9] = test system: Frankliniella occidentalis; assay: Activity against Frankliniella occidentalis (western flower thrips), feeding/contact activity; settings: foliar, 168 h, application rate 200 ppm, 7 days after infestation, sunflower leaf discs, mixed ages
Experimental: Example B4: Activity Against Frankliniella occidentalis (Western Flower Thrips). Feeding/Contact Activity
Sunflower leaf discs were placed on agar in 24-well microtiter plates and sprayed with aqueous test solutions prepared from […] stock solutions. After drying the leaf discs were infested with a Frankliniella population of mixed ages. The samples were assessed for mortality 7 days after infestation.

C[C@@H](c1nccnc1-c1ccc(=O)n(C)n1)N(C)c1ncnc2c(C(F)(F)F)cc(Cl)cc12 (single isomer, unassigned) [P27]
≥ 80%: percent control (mortality, anti-feedant effect or growth inhibition) at 200 ppm [1] | percent control (mortality or growth inhibition) at 200 ppm [2] | percent control (mortality, anti-feedant effect or growth inhibition) at 200 ppm [3] | percent effect (mortality or growth inhibition) at 200 ppm [4] | percent control (mortality or growth inhibition) at 200 ppm [5] | mortality at 200 ppm [6] | mortality at 200 ppm [7] | mortality at 12 ppm [8]

C[C@H](Nc1nc(=O)[nH]c2c(Cl)cc(C(F)(F)F)cc12)c1ncnn1-c1ccc(=O)n(C)n1 [P5, 8-chloro-4-[[(1S)-1-[2-(1-methyl-6-oxo-pyridazin-3-yl)-1,2,4-triazol-3-yl]ethyl]amino]-6-(trifluoromethyl)-1H-quinazolin-2-one]
≥ 80%: percent effect (mortality or growth inhibition) at 200 ppm [4] | mortality at 200 ppm [9]

C[C@@H](c1ncnn1-c1ccc(=O)n(C)n1)N(C)c1ncnc2c(C(F)(F)F)cc(Cl)cc12 [P6, 6-[5-[(1S)-1-[[6-chloro-8-(trifluoro-methyl)quinazolin-4-yl]-methyl-amino]ethyl]-1,2,4-triazol-1-yl]-2-methyl-pyr-idazin-3-one]
≥ 80%: percent control (mortality, anti-feedant effect or growth inhibition) at 200 ppm [1] | percent control (mortality or growth inhibition) at 200 ppm [2] | percent control (mortality, anti-feedant effect or growth inhibition) at 200 ppm [3] | percent effect (mortality or growth inhibition) at 200 ppm [4] | percent control (mortality or growth inhibition) at 200 ppm [5] | mortality at 200 ppm [6] | mortality at 200 ppm [7] | mortality at 12 ppm [8]

CC(Nc1ncnc2c(Cl)cc(C(F)(F)F)cc12)c1nccnc1-c1ccc(=O)n(C)n1 (stereo not drawn) [P13, 6-[3-[1-[[8-chloro-6-(trifluoromethyl)quinazolin-4-yl]amino]ethyl]pyrazin-2-yl]-2-methyl-pyridazin-3-one]
≥ 80%: percent control (mortality, anti-feedant effect or growth inhibition) at 200 ppm [1] | percent control (mortality or growth inhibition) at 200 ppm [2] | percent control (mortality, anti-feedant effect or growth inhibition) at 200 ppm [3] | percent effect (mortality or growth inhibition) at 200 ppm [4] | percent control (mortality or growth inhibition) at 200 ppm [5] | mortality at 200 ppm [6] | mortality at 12 ppm [8]

CCn1nc(-n2ncnc2[C@H](C)N(C)c2ncnc3c(C(F)(F)F)cc(Cl)cc23)ccc1=O [P15, 6-[5-[(1S)-1-[[6-chloro-8-(trifluoro-methyl)quinazolin-4-yl]-methyl-amino]ethyl]-1,2,4-triazol-1-yl]-2-ethyl-pyrid-azin-3-one]
≥ 80%: percent control (mortality, anti-feedant effect or growth inhibition) at 200 ppm [1] | percent control (mortality or growth inhibition) at 200 ppm [2] | percent control (mortality, anti-feedant effect or growth inhibition) at 200 ppm [3] | percent effect (mortality or growth inhibition) at 200 ppm [4] | percent control (mortality or growth inhibition) at 200 ppm [5] | mortality at 200 ppm [6] | mortality at 12 ppm [8]

CCn1nc(-n2ncnc2[C@H](C)Nc2ncnc3c(Cl)cc(C(F)(F)F)cc23)ccc1=O [P17, 6-[5-[(1S)-1-[[8-chloro-6-(trifluoromethyl)quinazolin-4-yl]amino]ethyl]-1,2,4-triazol-1-yl]-2-ethyl-pyridazin-3-one]
≥ 80%: percent control (mortality, anti-feedant effect or growth inhibition) at 200 ppm [1] | percent control (mortality or growth inhibition) at 200 ppm [2] | percent control (mortality, anti-feedant effect or growth inhibition) at 200 ppm [3] | percent effect (mortality or growth inhibition) at 200 ppm [4] | percent control (mortality or growth inhibition) at 200 ppm [5] | mortality at 200 ppm [6] | mortality at 12 ppm [8]

CCn1nc(-n2ncnc2[C@H](C)Nc2ncnc3c(C(F)(F)F)cc(Cl)cc23)ccc1=O [P19, 6-[5-[(1S)-1-[[6-chloro-8-(trifluoro-methyl)quinazolin-4-yl]amino]ethyl]-1,2,4-triazol-1-yl]-2-ethyl-pyridazin-3-one]
≥ 80%: percent control (mortality, anti-feedant effect or growth inhibition) at 200 ppm [1] | percent control (mortality or growth inhibition) at 200 ppm [2] | percent control (mortality, anti-feedant effect or growth inhibition) at 200 ppm [3] | percent effect (mortality or growth inhibition) at 200 ppm [4] | percent control (mortality or growth inhibition) at 200 ppm [5] | mortality at 200 ppm [6] | mortality at 12 ppm [8]

CCn1nc(-n2ncnc2[C@H](C)N(C)c2ncnc3c(Cl)cc(C(F)(F)F)cc23)ccc1=O [P22, 6-[5-[(1S)-1-[[8-chloro-6-(trifluoro-methyl)quinazolin-4-yl]-methyl-amino]ethyl]-1,2,4-triazol-1-yl]-2-ethyl-pyrid-azin-3-one]
≥ 80%: percent control (mortality, anti-feedant effect or growth inhibition) at 200 ppm [1] | percent control (mortality or growth inhibition) at 200 ppm [2] | percent control (mortality, anti-feedant effect or growth inhibition) at 200 ppm [3] | percent effect (mortality or growth inhibition) at 200 ppm [4] | percent control (mortality or growth inhibition) at 200 ppm [5] | mortality at 200 ppm [6] | mortality at 12 ppm [8]

C[C@@H](c1ncnn1C1=NN(C)C(=O)CC1)N(C)c1ncnc2c(C(F)(F)F)cc(Cl)cc12 [P24]
≥ 80%: percent control (mortality, anti-feedant effect or growth inhibition) at 200 ppm [1] | percent control (mortality or growth inhibition) at 200 ppm [2] | percent control (mortality, anti-feedant effect or growth inhibition) at 200 ppm [3] | percent effect (mortality or growth inhibition) at 200 ppm [4] | percent control (mortality or growth inhibition) at 200 ppm [5] | mortality at 200 ppm [6] | mortality at 12 ppm [8]
